# Test system: iPSC-derived cortical neurons
# Assay type: cell-based
# Settings: responders vs non-responders after 10 μM Bupropion
smiles,measurement,setting,value
"CC(NC(C)(C)C)C(=O)c1cccc(Cl)c1 (stereo not drawn) [Bupropion, 3-Chloro-N-tert-butyl-β-keto-α-methylphenethylamin]",logFC PARP6,NS,−0.681
same,logFC PCBP4,NS,−1.293
same,logFC PCDH10,NS,−1.015
same,logFC PCSK1N,NS,−1.46
same,logFC PDYN,NS,−1.613
same,logFC PGM2L1,NS,−1.008
same,logFC PHACTR3,NS,−1.439
same,logFC PID1,NS,−1.455
same,logFC PIK3R1,NS,−0.9783
same,logFC PITPNC1,NS,−0.8298
same,logFC PITPNM2,NS,−0.7259
same,logFC PKIA,NS,−1.194
same,logFC PLPPR2,NS,−0.974
same,logFC PNMA3,NS,−1.221
same,logFC PPEF1,NS,−1.59
same,logFC PPFIA2,NS,−1.898
same,logFC PPFIA3,NS,−0.735
same,logFC PPM1K,NS,−0.7077
same,logFC PPP1R13B,NS,−1.191
same,logFC PPP2R2B,NS,−1.116
same,logFC PPP2R2C,NS,−1.735
same,logFC PPP2R5B,NS,−1.051
same,logFC PRDM8,NS,−2.418
same,logFC PSD,NS,−1.027
same,logFC PSD2,NS,−1.447
same,logFC PTPRH,NS,−1.255
same,logFC PTPRN2,NS,−1.272
same,logFC PTPRR,NS,−1.517
same,logFC RAB3A,NS,−1.354
same,logFC RAB3C,NS,−1.236
same,logFC RAB6B,NS,−1.225
same,logFC RAB33A,NS,−1.51
same,logFC RAP1GAP,NS,−0.7191
same,logFC RASGEF1B,NS,−1.168
same,logFC RBFOX1,NS,−1.576
same,logFC RBFOX3,NS,−1.575
same,logFC RBP4,NS,−2.21
same,logFC RCAN2,NS,−1.602
same,logFC REM2,NS,−1.186
same,logFC RETREG2,NS,−0.5717
same,logFC RGR,NS,−2.072
same,logFC RGS7,NS,−1.689
same,logFC RHBDL3,NS,−1.325
same,logFC RHOBTB2,NS,−0.7317
same,logFC RIMS1,NS,−1.83
same,logFC RIT2,NS,−2.318
same,logFC RNF152,NS,−1.135
same,logFC RNF165,NS,−0.9556
same,logFC RPS6KA2,NS,−0.8831
same,logFC RTN1,NS,−1.456
same,logFC RUFY3,NS,−0.7072
same,logFC RUNDC3B,NS,−1.512
same,logFC RUNX1T1,NS,−1.916
same,logFC RXRG,NS,−1.776
same,logFC SAMD14,NS,−1.111
same,logFC SARM1,NS,−1.209
same,logFC SCAPER,NS,−0.7606
same,logFC SCG2,NS,−1.691
same,logFC SCG3,NS,−1.431
same,logFC SCN1A,NS,−1.947
same,logFC SCN2A,NS,−1.841
same,logFC SCN3B,NS,−1.722
same,logFC SCN7A,NS,−1.457
same,logFC SCN9A,NS,−1.803
same,logFC SEPTIN3,NS,−1.333
same,logFC SERP2,NS,−1.449
same,logFC SEZ6L,NS,−1.45
same,logFC SEZ6L2,NS,−0.7768
same,logFC SHANK1,NS,−1.292
same,logFC SHISAL1,NS,−1.498
same,logFC SHISAL2A,NS,−1.16
same,logFC SIDTI,NS,−2.103
same,logFC SIT1,NS,−1.927
same,logFC SLC4A8,NS,−0.8668
same,logFC SLC7A14,NS,−1.705
same,logFC SLC8A3,NS,−1.496
same,logFC SLC17A6,NS,−2.069
same,logFC SLC22A15,NS,−0.9589
same,logFC SLC22A23,NS,−1.148
same,logFC SLC37A1,NS,−1.052
same,logFC SLC38A4,NS,−1.273
same,logFC SLCO2B1,NS,−1.491
same,logFC SLCO5A1,NS,−1.211
same,logFC SLITRK1,NS,−1.312
same,logFC SMAP2,NS,−0.8196
same,logFC SMPD3,NS,−1.445
same,logFC SNAP91,NS,−1.605
same,logFC SNCB,NS,−1.524
same,logFC SNCG,NS,−1.396
same,logFC SNPH,NS,−1.134
same,logFC SNTG1,NS,−2.048
same,logFC SPNS2,NS,−1.211
same,logFC SPTBN4,NS,−1.122
same,logFC SRRM3,NS,−1.175
same,logFC SSTR2,NS,−1.449
same,logFC ST8SIA2,NS,−1.153
same,logFC STK32B,NS,−1.644
same,logFC STX1B,NS,−0.9907
same,logFC STXBP1,NS,−1.033
same,logFC SV2A,NS,−0.9341
same,logFC SYN1,NS,−1.543
same,logFC SYNGR1,NS,−0.8271
same,logFC SYP,NS,−1.709
same,logFC SYT1,NS,−1.058
same,logFC SYT7,NS,−1.505
same,logFC SYT13,NS,−1.444
same,logFC TAC1,NS,−1.101
same,logFC TAFA1,NS,−2.193
same,logFC TAGLN3,NS,−1.002
same,logFC TANC2,NS,−0.7278
same,logFC TBC1D24,NS,−0.8527
same,logFC TERF2IP,NS,−0.7455
same,logFC TH,NS,−1.664
same,logFC THRB,NS,−2.357
same,logFC TIMP2,NS,−0.878
same,logFC TLCD3B,NS,−1.431
same,logFC TMEM59L,NS,−0.8819
same,logFC TMEM121B,NS,−0.8958
same,logFC TMEM132B,NS,−1.025
same,logFC TMEM151A,NS,−1.522
same,logFC TMEM151B,NS,−1.463
same,logFC TMEM178A,NS,−0.904
same,logFC TMEM246,NS,−1.159
same,logFC TOM1L2,NS,−0.7199
same,logFC TP53I11,NS,−0.8407
same,logFC TP53INP2,NS,−1.177
same,logFC TPPP,NS,−1.04
same,logFC TRIB2,NS,−0.7077
same,logFC TRIM9,NS,−1.352
same,logFC TSPAN7,NS,−1.098
same,logFC TSPYL5,NS,−1.843
same,logFC TTBK1,NS,−1.374
same,logFC TUBB2B,NS,−0.7583
same,logFC TVP23A,NS,−1.064
same,logFC VPS26B,NS,−0.6245
same,logFC VSTM2A,NS,−1.971
same,logFC VWA5B2,NS,−1.111
same,logFC VXN,NS,−1.527
same,logFC WDR47,NS,−0.8343
same,logFC WDR82,NS,−0.4862
same,logFC WNK2,NS,−0.7608
same,logFC WSB2,NS,−0.8644
same,logFC ZC3HAV1L,NS,−2.186
same,logFC ZDHHC22,NS,−1.455
same,logFC ZFP3,NS,−1.933
same,logFC ZNF385A,NS,−0.8795
same,logFC ZNF439,NS,−2.201
same,logFC ABCC6,p<0.01,−0.5461
same,logFC ADAMTS4,p<0.01,−0.723
same,logFC ADAMTS8,p<0.01,−1.658
same,logFC ADAMTS15,p<0.01,−1.743
same,logFC ADAMTSL1,p<0.01,−1.46
same,logFC ADAMTSL2,p<0.01,−1.833
same,logFC ALDOC,p<0.01,−0.6635
same,logFC APOL2,p<0.01,−0.6452
same,logFC AQP6,p<0.01,−1.137
same,logFC ARHGAP23,p<0.01,−0.5891
same,logFC ARHGEF28,p<0.01,−0.916
same,logFC ARL17B,p<0.01,−1.232
same,logFC ASPN,p<0.01,−3.695
same,logFC BDKRB2,p<0.01,−1.475
same,logFC C1R,p<0.01,−1.32
same,logFC C5orf63,p<0.01,−1.211
same,logFC CABP7,p<0.01,−1.06
same,logFC CACNA1H,p<0.01,−0.5137
same,logFC CCDC183,p<0.01,−0.5281
same,logFC CCDC187,p<0.01,−1.023
same,logFC CCER2,p<0.01,−0.8431
same,logFC CD151,p<0.01,−0.4377
same,logFC CDKN1C,p<0.01,−0.6211
same,logFC CEMIP,p<0.01,−2.321
same,logFC CHST8,p<0.01,−1.474
same,logFC COL1A1,p<0.01,−1.88
same,logFC COL6A1,p<0.01,−0.5639
same,logFC COL8A2,p<0.01,−2.755
same,logFC COL15A1,p<0.01,−2.224
same,logFC CPA4,p<0.01,−2.791
same,logFC CPNE5,p<0.01,−0.937
same,logFC CXCL2,p<0.01,−1.783
same,logFC CXCL6,p<0.01,−2.412
same,logFC CXCL8,p<0.01,−3.086
same,logFC DHRS3,p<0.01,−1.126
same,logFC DRGX,p<0.01,−4.337
same,logFC DYRK1B,p<0.01,−0.3984
same,logFC EFEMP2,p<0.01,−0.7929
same,logFC EGFLAM,p<0.01,−1.798
same,logFC ELN,p<0.01,−2.048
same,logFC EPHB3,p<0.01,−0.4956
same,logFC EYA2,p<0.01,−0.955
same,logFC FAM20C,p<0.01,−0.6923
same,logFC FBLN5,p<0.01,−1.918
same,logFC FMOD,p<0.01,−2.269
same,logFC FNDC5,p<0.01,−0.7008
same,logFC FRMPD1,p<0.01,−2.303
same,logFC GAA,p<0.01,−0.4856
same,logFC GALNT14,p<0.01,−1.152
same,logFC GLIS2,p<0.01,−0.5025
same,logFC GPBAR1,p<0.01,−0.9131
same,logFC HCN1,p<0.01,−2.181
same,logFC HES6,p<0.01,−1.04
same,logFC HMX1,p<0.01,−1.478
same,logFC HOXB5,p<0.01,−2.739
same,logFC HS3ST2,p<0.01,−1.228
same,logFC HS6ST1,p<0.01,−0.6264
same,logFC IAH1,p<0.01,−0.789
same,logFC IGFBP5,p<0.01,−0.9814
same,logFC IL17RC,p<0.01,−0.5333
same,logFC INHBB,p<0.01,−1.748
same,logFC INMT,p<0.01,−1.061
same,logFC IRF2BPL,p<0.01,−0.3835
same,logFC ISLR,p<0.01,−1.646
same,logFC ITPRIP,p<0.01,−0.5931
same,logFC JOSD2,p<0.01,−0.7377
same,logFC KCNA1,p<0.01,−3.416
same,logFC KCNJ5,p<0.01,−1.028
same,logFC KDM4B,p<0.01,−0.331
same,logFC KHDC1,p<0.01,−0.7724
same,logFC KIF26A,p<0.01,−0.5135
same,logFC KLHL35,p<0.01,−1.144
same,logFC LGALS3BP,p<0.01,−0.9602
same,logFC LOXL1,p<0.01,−0.6236
same,logFC LRFN5,p<0.01,−0.6816
same,logFC LURAP1L,p<0.01,−1.086
same,logFC LYPD1,p<0.01,−0.7703
same,logFC MAB21L2,p<0.01,−0.9329
same,logFC MAFB,p<0.01,−0.573
same,logFC MCC,p<0.01,−0.8548
same,logFC MGP,p<0.01,−2.67
same,logFC MKX,p<0.01,−1.878
same,logFC MX2,p<0.01,−1.618
same,logFC NDUFA4L2,p<0.01,−0.8379
same,logFC NFIX,p<0.01,−2.446
same,logFC NNMT,p<0.01,−2.326
same,logFC NPR2,p<0.01,−0.5942
same,logFC NTNG2,p<0.01,−1.161
same,logFC OGFR,p<0.01,−0.318
same,logFC OLFML2B,p<0.01,−1.03
same,logFC OPRK1,p<0.01,−0.939
same,logFC OPRM1,p<0.01,−1.985
same,logFC OPTN,p<0.01,−0.44
same,logFC OTOG,p<0.01,−1.855
same,logFC P4HA3,p<0.01,−2.239
same,logFC PADI2,p<0.01,−1.485
same,logFC PALM,p<0.01,−0.581
same,logFC PARP10,p<0.01,−1.041
same,logFC PENK,p<0.01,−1.977
same,logFC PHOX2B,p<0.01,−2.192
same,logFC PIEZO2,p<0.01,−2.464
same,logFC PIRT,p<0.01,−3.199
same,logFC PLAC9,p<0.01,−1.585
